According to US11365186B2, “Substituted benzimidazoles, their preparation and their use as pharmaceuticals” (Epigenetix, Inc., priority 2015, dated 2022):
pIC50: −log10 of the molar value.

Tested on: human C-Myc transcription in MV-4-11 cells
Assay: Transcription of human C-Myc in human leukemic MV-4-11 cells (QuantiGene 2.0)
Format: cell-based
Details: inhibition of C-Myc mRNA transcription, 4 hours treatment, read-out: IC50 MV-4-11 Cell
Method: b) Transcription of Human C-Myc in Human Leukemic MV-4-11 Cells:
The effect of compounds on transcription of human C-Myc gene is monitored in human B-myelomonocytic leukemia cell line MV-4-11 (from American Type Culture Collection (ATCC), Manassas, Va., USA) using QuantiGene 2.0 assay kit (Affymetrix, Santa Clara, Calif., USA).
Typically, 8,000 MV-4-11 cells are plated in sterile 96-well plates (Costar #3598 from Fisher Scientific Canada, Ottawa, Ontario, Canada) in Iscove's medium supplemented with 10% fetal bovine serum, glutamine (2 mM), and penicillin (100 I.U.) and streptomycin (100 μg/mL) (all from Wisent Inc., St. Bruno, Quebec, Canada). Compounds are dissolved in DMSO at 30 mM. A series of 1:3 dilutions are first made in DMSO, and further […] dilutions are made in serum-containing cell culture media. The final concentration of DMSO is 0.1% in cell culture media. After cells are treated with various concentrations of test compound for 4 hours, cells are lysed using Quantigene 2.0 sample processing kit (#QS0100). C-Myc mRNA is detected using a QuantiGene 2.0 assay kit (#QS0009) with gene-specific probe to human C-Myc (#SA-50182) following the manufacturer's recommendations. Luminescence signals are read on Flexstation II microplate reader (Molecular Devices, Sunnyvale, Calif., USA).

pIC50: 7.77
SMILES: COC1CC(c2nc3ccc(-c4cc(C)c(=O)n(C)c4)cc3n2CCOCC(F)(F)F)C1 (stereo not shown) [Compound 63, 5-[2-(3-methoxycyclobutyl)-1-(2-(2,2,2-trifluoroethoxy)ethyl)-1H-benzo[d]imidazol-6-yl]-1,3-dimethylpyridin-2(1H)-one]
